Measured values: patent US11752169B2, “Treatment of pain with polysulfated polysaccharides” (PARADIGM BIOPHARMACEUTICALS LTD., priority 2018, dated 2023)

Test system: NGF mRNA
Assay: real-time RT-PCR for NGF mRNA in osteocyte-like cultures
Format: cell-based, human
Procedure: FIG. 23. Effects of combinations of rhTNF and PPS on NGF gene expression in osteocyte-like cultures. Human differentiated osteocyte-like cultures were either untreated or pretreated with PPS (0.1 or 1.0 μg/mL) for 24 h, then with or without rhTNFα (1 ng/mL) for a further 48 h, and then real-time RT-PCR was performed for NGF mRNA. Data are mean+SD of triplicate real-time RT-PCR reactions normalised to the mRNA expression of the housekeeping gene ACTB.
FIG. 28. Effects of combinations of rhTNF and PPS on NGF gene expression in osteocyte-like cultures. Human differentiated osteocyte-like cultures were either untreated or pretreated with PPS (0.1 or 1.0 μg/mL) for 24 h, then with or without rhTNFα (1 ng/mL) for a further 48 h, and then real-time RT-PCR was performed for NGF mRNA. Data are mean+SD of triplicate real-time RT-PCR reactions normalised to the mRNA expression of the housekeeping gene ACTB.
Cryopreserved cells from each donor (all at passage 0 or 1) were thawed and cultured for 10d in T75 cm^2 tissue culture flasks. Once confluent, cells were removed by collagenase/dispase digestion, washed by centrifugation, counted and adjusted to 5×10^5 cells/mL. Cells were then seeded into either 12-well tissue culture trays or into 8-well chamber slides, at 1×10^5 and 2×10^4 cells/well, respectively. After 24 h, media were replaced with osteogenic differentiation medium, consisting of αMEM, 5% v/v foetal calf serum (FCS), 1.8 mM potassium dihydrogen phosphate (KH2PO4), 100 μM Ascorbate-2-phosphate (As2P), 10 mM HEPES, 10^−8 M Dexamethasone and 0.2 mM L-Glutamine. During the differentiation process, samples were collected at days 3, 14 and 28 in Trizol reagent for total RNA preparation and gene expression analysis (see below). Cultures seeded into chamber slides were examined for in vitro mineralisation using the Alizarin Red staining technique, as previously described.
PPS was manufactured by bene pharmaChem GmbH & Co. KG, Geretstried, Germany. This was dissolved in sterile PBS as a stock solution at 1.0 mg/mL. Differentiated cells were either untreated or pre-treated with final concentrations of PPS at 1, 5 or 50 μg/mL in culture medium for 72 h. The tested doses of PPS were based on the effective and maximally active levels published in a previous study. Media were then replaced with the same concentrations of PPS with or without the addition of recombinant human (rh) TNFα (1 ng/mL) and then cultured for a further 48 h. Culture supernatants were collected and total RNA and cDNA prepared, as described below. This generated 8 conditions (Untreated, TNF, PPS1, PPS5, PPS50, TNF+PPS1, TNF+PPS5, TNF+PPS50) from 6 donors.
Total RNA was prepared from Trizol lysates, according to the manufacturer's instructions, with the exception that due to evidence for PPS interference in the generation of assayable cDNA, RNA precipitates were washed 3 times in 75% ethanol instead of the usual single wash step, in an attempt to remove residual PPS. RNA preparations were tested for yield and purity using a Nanodrop microvolume spectrophotometer (Thermo Fisher). One microgram of RNA from each sample was reverse transcribed using a Superscript™ II kit (Thermo Fisher), as per manufacturer's instructions. Real-time RT-PCR was performed for genes including Nerve Growth Factor (NGF), its receptors NTRK1 (TRKA) and NGFR (P75NTR), MMP13, Cyclooxygenase-2 (COX-2), Interleukin-6 (IL-6) RANKL, OPG, OCN, DMP1 and SOST, relative to housekeeping gene (18S, ACTB) expression. […]

Sodium Pentosan Polysulfate [PPS]
NGF mRNA levels, PPS in combination with rhTNFα (KOA1 and KOA2 cultures, PPS 1 μg/mL + rhTNFα 1 ng/mL, 48 h, relative to 18S rRNA (FIG. 16)): strongly suppressed
NGF mRNA levels, PPS alone (KOA1 and KOA2 cultures, PPS 1 μg/mL, 72 h pre-treatment + 48 h, relative to 18S rRNA (FIG. 16)): strongly suppressed
NGF expression (mRNA) in the presence of TNFα (PPS at 1 μg/mL, 24 h pre-treatment, rhTNFα 1 ng/mL 48 h, normalised to ACTB (FIG. 23)): significantly reduced
NGF expression (mRNA) in the presence of TNFα (PPS at 1 mg/mL (so in the source), FIG. 28, normalised to ACTB): significantly reduced
basal NGF mRNA levels (PPS at both 0.1 and 1 μg/mL, 24 h pre-treatment + 48 h, normalised to ACTB (FIG. 23)): no apparent effect
